One experiment relates to TGF-β. The experiment is described as follows: ELISA of TGF-β in brain tissue of cerebral ischemia-reperfusion rats. The following applies: brain homogenate.
Experiment [1] concerns cerebral ischemia-reperfusion model rats. The experiment is described as follows: Inflammatory factors in brain tissues in cerebral ischemia-reperfusion rats (overall statement). The note with it: 40 mg/kg.

Structures are written as SMILES.

In the case of `C[C@@H](CCC1(O)O[C@H]2C[C@H]3[C@@H]4CC[C@@H]5C[C@@H](O[C@@H]6O[C@H](CO)[C@H](O)[C@H](O)[C@H]6O[C@@H]6O[C@H](CO)[C@@H](O)[C@H](O)[C@H]6O)CC[C@]5(C)[C@H]4CC[C@]3(C)[C@H]2[C@@H]1C)CO[C@@H]1O[C@H](CO)[C@@H](O)[C@H](O)[C@H]1O` (stereo partly drawn) [Timosaponin BII, (25S)-26-O-β-D-glucopyranosyl-22-hydroxy-5β-furostane-3β,26-diol-3-O-β-D-glucopyranosyl(1→2)-β-D-galactopyranoside], the TGF-β with TGF-β (10 mg/kg by gavage 5 days) was determined as 12.70 ± 3.57 pg/mL; in the experiment on TGF-β (40 mg/kg by gavage 5 days), 10.30 ± 3.79 pg/mL. Moreover, the “effect on levels of inflammatory factors IL-1β, TNF-α, IL-10, TGF-β (in words)” value in experiment [1] is “significantly reduced the levels of these inflammatory factors”.

For the origin of these results see patent US7998936B2, “Use of timosaponin Bll in the preparation of a medicament or product for the prevention and treatment of stroke” (Institute of Radiation Medicine, Academy of Military …, priority 2004, dated 2011).
